Measured values as given in ChEMBL document CHEMBL1944529, “Structure-based design, synthesis and structure-activity relationships of dibenzosuberyl- and benzoate-substituted tropines as ligands for acetylcholine-binding protein” (Bioorg Med Chem Lett, 2012).

Legend:
[1] = molecular target: Acetylcholine-binding protein (Lymnaea stagnalis, UniProt P58154); assay: Displacement of [3H]epibatidine from Lymnaea stagnalis acetylcholine binding protein expressed using baculoviral system after 1.5 hrs by scintillation counting
Acetylcholine-binding protein, sequence (P58154 whole entry): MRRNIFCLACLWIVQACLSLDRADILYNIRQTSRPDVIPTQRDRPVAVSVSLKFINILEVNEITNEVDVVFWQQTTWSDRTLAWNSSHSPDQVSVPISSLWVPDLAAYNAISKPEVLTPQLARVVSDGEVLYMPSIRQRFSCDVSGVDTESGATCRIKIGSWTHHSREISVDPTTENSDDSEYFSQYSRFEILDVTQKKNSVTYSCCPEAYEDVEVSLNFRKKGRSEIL

[2] = molecular target: T1, Soluble acetylcholine receptor (Aplysia californica, UniProt Q8WSF8); assay: Displacement of [3H]epibatidine from Aplysia californica acetylcholine binding protein expressed using baculoviral system after 1.5 hrs by scintillation counting
T1 sequence (Q8WSF8 whole entry): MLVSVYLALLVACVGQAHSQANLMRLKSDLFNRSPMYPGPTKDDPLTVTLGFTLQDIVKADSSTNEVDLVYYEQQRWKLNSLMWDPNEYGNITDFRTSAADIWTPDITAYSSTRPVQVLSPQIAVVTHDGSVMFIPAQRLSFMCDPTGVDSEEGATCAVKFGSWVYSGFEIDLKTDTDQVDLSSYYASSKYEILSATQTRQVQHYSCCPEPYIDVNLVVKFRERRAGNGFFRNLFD

[3] = molecular target: Neuronal acetylcholine receptor subunit alpha-7 (Homo sapiens, UniProt P36544); assay: Displacement of [3H]MLA from nAChR alpha7 receptor in human SH-SY5Y cells by scintillation counting; format: cell-based
Neuronal acetylcholine receptor subunit alpha-7, sequence (P36544 whole entry): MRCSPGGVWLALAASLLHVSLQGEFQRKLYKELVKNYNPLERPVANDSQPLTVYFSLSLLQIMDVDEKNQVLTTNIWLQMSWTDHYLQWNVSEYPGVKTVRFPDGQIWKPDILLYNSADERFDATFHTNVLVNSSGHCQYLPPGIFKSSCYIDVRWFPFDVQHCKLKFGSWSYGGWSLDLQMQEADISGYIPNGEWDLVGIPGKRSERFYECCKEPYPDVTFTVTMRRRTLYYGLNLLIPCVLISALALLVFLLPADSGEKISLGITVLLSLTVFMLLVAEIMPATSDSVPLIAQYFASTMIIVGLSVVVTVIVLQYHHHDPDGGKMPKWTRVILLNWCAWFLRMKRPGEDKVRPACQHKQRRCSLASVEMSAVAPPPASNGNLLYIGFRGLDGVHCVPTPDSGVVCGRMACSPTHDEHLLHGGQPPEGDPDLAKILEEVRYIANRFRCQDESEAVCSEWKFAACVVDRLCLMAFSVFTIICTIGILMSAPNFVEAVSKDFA

[4] = molecular target: Neuronal acetylcholine receptor; alpha4/beta2 (Homo sapiens, UniProt P17787+P43681); assay: Displacement of [3H]epibatidine from human nAChR alpha4beta2 receptor expressed in human HEK293T cells by scintillation counting; format: cell-based, HEK-293T
Neuronal acetylcholine receptor; alpha4/beta2, sequence (P17787 whole entry): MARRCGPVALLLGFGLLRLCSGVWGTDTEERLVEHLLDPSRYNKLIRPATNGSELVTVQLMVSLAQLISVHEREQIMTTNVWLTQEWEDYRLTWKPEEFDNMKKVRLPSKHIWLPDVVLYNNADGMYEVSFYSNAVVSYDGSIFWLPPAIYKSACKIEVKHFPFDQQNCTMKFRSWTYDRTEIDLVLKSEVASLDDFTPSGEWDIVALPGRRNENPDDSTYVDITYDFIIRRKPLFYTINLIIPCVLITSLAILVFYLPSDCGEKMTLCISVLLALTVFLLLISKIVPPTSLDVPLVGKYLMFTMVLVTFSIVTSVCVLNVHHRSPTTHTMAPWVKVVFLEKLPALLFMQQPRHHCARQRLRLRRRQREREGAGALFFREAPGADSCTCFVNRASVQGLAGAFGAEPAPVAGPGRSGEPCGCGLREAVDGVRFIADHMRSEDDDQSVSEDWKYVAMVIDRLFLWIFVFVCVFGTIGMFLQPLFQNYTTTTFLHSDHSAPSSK
Neuronal acetylcholine receptor; alpha4/beta2, sequence (P43681 whole entry): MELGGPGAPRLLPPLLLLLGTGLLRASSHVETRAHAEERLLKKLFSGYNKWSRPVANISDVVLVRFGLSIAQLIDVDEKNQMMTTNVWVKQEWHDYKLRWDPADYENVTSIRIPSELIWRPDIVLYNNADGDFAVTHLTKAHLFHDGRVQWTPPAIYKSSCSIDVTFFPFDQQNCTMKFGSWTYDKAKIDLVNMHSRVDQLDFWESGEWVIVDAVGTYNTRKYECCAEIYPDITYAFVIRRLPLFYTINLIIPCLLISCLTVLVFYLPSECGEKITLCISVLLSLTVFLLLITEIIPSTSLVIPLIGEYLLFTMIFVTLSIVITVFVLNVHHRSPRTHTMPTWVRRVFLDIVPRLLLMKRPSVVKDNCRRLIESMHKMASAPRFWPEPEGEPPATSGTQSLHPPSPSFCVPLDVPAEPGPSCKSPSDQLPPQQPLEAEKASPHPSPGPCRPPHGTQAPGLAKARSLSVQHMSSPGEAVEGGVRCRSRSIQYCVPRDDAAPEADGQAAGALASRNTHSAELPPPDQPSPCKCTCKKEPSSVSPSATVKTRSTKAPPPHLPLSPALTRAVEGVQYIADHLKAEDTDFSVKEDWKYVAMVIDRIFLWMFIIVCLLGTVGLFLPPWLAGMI

## c1ccc(CN2[C@@H]3CC[C@H]2C[C@@H](OC2c4ccccc4CCc4ccccc42)C3)cc1
[1]
  Ki: 251 nM
[2]
  Ki: 10000 nM

## c1ccc2c(c1)CCc1ccccc1C2O[C@H]1C[C@H]2CC[C@@H](C1)N2
[1]
  Ki: 1000 nM
[2]
  Ki: 10000 nM

## C[N+]1(C)[C@@H]2CC[C@H]1C[C@@H](OC1c3ccccc3CCc3ccccc31)C2
[1]
  Ki: 316 nM
[2]
  Ki: 1000 nM
[3]
  Ki: 1000 nM
[4]
  Ki: > 31600 nM

## c1ccc(CCN2[C@@H]3CC[C@H]2C[C@@H](OC2c4ccccc4CCc4ccccc42)C3)cc1
[1]
  Ki: 100 nM
[2]
  Ki: 10000 nM
[3]
  Ki: 12600 nM
[4]
  Ki: > 31600 nM

## C[N+]1(CCc2ccccc2)[C@@H]2CC[C@H]1C[C@@H](OC1c3ccccc3CCc3ccccc31)C2 (stereo partly drawn)
[1]
  Ki: 39.8 nM
[2]
  Ki: 631 nM
[3]
  Ki: 1580 nM
[4]
  Ki: > 31600 nM

## O=C(O[C@H]1C[C@H]2CC[C@@H](C1)N2)c1ccccc1
[1]
  Ki: 794 nM
[2]
  Ki: 5010 nM
[3]
  Ki: 3160 nM
[4]
  Ki: > 31600 nM

## O=C(O[C@@H]1C[C@H]2CC[C@@H](C1)N2)c1ccccc1
[1]
  Ki: 7940 nM
[2]
  Ki: 15800 nM

## CN1[C@@H]2CC[C@H]1C[C@H](OC(=O)c1ccccc1)C2
[1]
  Ki: 6310 nM
[2]
  Ki: 15800 nM

## O=C(O[C@H]1C[C@H]2CC[C@@H](C1)N2CCc1ccccc1)c1ccccc1
[1]
  Ki: 79.4 nM
[2]
  Ki: 31.6 nM
[3]
  Ki: 7940 nM
[4]
  Ki: > 31600 nM

## O=C(O[C@@H]1C[C@H]2CC[C@@H](C1)N2CCc1ccccc1)c1ccccc1
[1]
  Ki: 398 nM
[2]
  Ki: 1000 nM
[3]
  Ki: 5010 nM
[4]
  Ki: > 31600 nM

## C[N+]1(CCc2ccccc2)[C@@H]2CC[C@H]1C[C@@H](OC(=O)c1ccccc1)C2 (stereo partly drawn)
[1]
  Ki: 31.6 nM
[2]
  Ki: 158 nM
[3]
  Ki: 6310 nM
[4]
  Ki: > 31600 nM

## O=C(O[C@H]1C[C@H]2CC[C@@H](C1)N2C[C@@H](O)c1ccccc1)c1ccccc1
[1]
  Ki: 1260 nM
[2]
  Ki: 794 nM

## O=C(O[C@H]1C[C@H]2CC[C@@H](C1)N2C[C@H](O)c1ccccc1)c1ccccc1
[1]
  Ki: 794 nM
[2]
  Ki: 100 nM

## C[N+]1(CC(O)c2ccccc2)[C@@H]2CC[C@H]1C[C@@H](OC(=O)c1ccccc1)C2 (stereo partly drawn)
[1]
  Ki: 126 nM
[2]
  Ki: 2000 nM
[3]
  Ki: 10000 nM
[4]
  Ki: > 31600 nM

## C[N+]1(C[C@H](O)c2ccccc2)[C@@H]2CC[C@H]1C[C@@H](OC(=O)c1ccccc1)C2 (stereo partly drawn)
[1]
  Ki: 126 nM
[2]
  Ki: 794 nM

## O=C(O[C@H]1C[C@H]2CC[C@@H](C1)N2CC(O)c1cccc(O)c1)c1ccccc1 (stereo partly drawn)
[1]
  Ki: 794 nM
[2]
  Ki: 631 nM
[3]
  Ki: 25100 nM
[4]
  Ki: > 31600 nM

## O=C(O[C@H]1C[C@H]2CC[C@@H](C1)N2CC(O)c1cc(O)cc(O)c1)c1ccccc1 (stereo partly drawn)
[1]
  Ki: 398 nM
[2]
  Ki: 7940 nM
[3]
  Ki: 15800 nM
[4]
  Ki: > 31600 nM

## O=C(O[C@@H]1C[C@H]2CC[C@@H](C1)N2CC(O)c1cc(O)cc(O)c1)c1ccccc1 (stereo partly drawn)
[1]
  Ki: 2000 nM
[2]
  Ki: 20000 nM
[3]
  Ki: 12600 nM
[4]
  Ki: > 31600 nM

## O=C(O[C@H]1C[C@H]2CC[C@@H](C1)N2CCc1cccc(O)c1)c1ccccc1
[1]
  Ki: 100 nM
[2]
  Ki: 200 nM
[3]
  Ki: 12600 nM
[4]
  Ki: > 31600 nM

## OC(CN1[C@@H]2CC[C@H]1C[C@@H](OC1c3ccccc3CCc3ccccc31)C2)c1ccccc1 (mixture of isomers)
[1]
  Ki: 2000 nM
[2]
  Ki: 12600 nM
[3]
  Ki: 20000 nM
[4]
  Ki: > 31600 nM

## Oc1cccc(C(O)CN2[C@@H]3CC[C@H]2C[C@@H](OC2c4ccccc4CCc4ccccc42)C3)c1 (mixture of isomers)
[1]
  Ki: 2000 nM
[2]
  Ki: 31600 nM
[3]
  Ki: 39800 nM
[4]
  Ki: > 31600 nM

## O=C(O[C@H]1C[C@H]2CC[C@@H](C1)N2CC(O)c1ccccc1)c1ccccc1 (mixture of isomers)
[1]
  Ki: 631 nM
[2]
  Ki: 158 nM
[3]
  Ki: 12600 nM
[4]
  Ki: > 31600 nM

## CN1[C@@H]2CC[C@H]1C[C@@H](OC(=O)c1ccccc1)C2 [BENZOYL TROPINE]
[1]
  Ki: 2000 nM
[2]
  Ki: 3980 nM
[3]
  Ki: 15800 nM
[4]
  Ki: > 31600 nM

## CN1[C@@H]2CC[C@H]1C[C@@H](OC1c3ccccc3CCc3ccccc31)C2 [DEPTROPINE]
[1]
  Ki: 2000 nM
[2]
  Ki: 6310 nM

## CN1[C@@H](CC(=O)c2ccccc2)CCC[C@H]1C[C@H](O)c1ccccc1 [LOBELINE]
[2]
  Ki: 2.51 nM
[3]
  Ki: 7940 nM

## CN1CCC[C@H]1c1cccnc1 [NICOTINE]
[2]
  Ki: 2510 nM
